Patent US20240270821A1, “GIP/GLP1/GCG TRI-RECEPTOR AGONISTS AND USES THEREOF” (priority 2023, published 2024)
Read-outs that look alike come from different tables or passages of the source. Starred links: 1 amine or outer side, 2 acyl side, 3 side chain; linkers in the order of their positions; H or OH if unused. Non-standard residues stand in square brackets, D forms with d. Residues, ends and D or L forms follow the SMILES beside them. Groups on a side chain read outwards from the residue. No end group written: not given here. *: point of attachment. C20 diacid = O=C(O)CCCCCCCCCCCCCCCCCCC(=O)*; C18 diacid = O=C(O)CCCCCCCCCCCCCCCCC(=O)*; αMePhe(2-F) = C[C@](N)(Cc1ccccc1F)C(=O)O; γGlu = O=C(O)[C@H](CCC(=O)[*:2])N[*:1]; αMe4Pal = C[C@](N)(Cc1ccncc1)C(=O)O; αMeY = C[C@](N)(Cc1ccc(O)cc1)C(=O)O; αMeF = C[C@](N)(Cc1ccccc1)C(=O)O; 4Pal = N[C@@H](Cc1ccncc1)C(=O)O; αMeL = CC(C)C[C@](C)(N)C(=O)O; αMeS = C[C@](N)(CO)C(=O)O; Orn = NCCC[C@H](N)C(=O)O; AEEA = NCCOCCOCC(=O)O; Aib = CC(C)(N)C(=O)O

What was measured:
Format in all cases: cell-based
human GcgR = human GcgR (Homo sapiens, UniProt P47871); experiment: Functional cAMP activity in the presence of 1% HSA
hGIPR [1] = target: T1, hGIPR (Homo sapiens, UniProt P48546); experiment: Functional cAMP activity in the presence of 1% HSA
T1 sequence (P48546 22-466): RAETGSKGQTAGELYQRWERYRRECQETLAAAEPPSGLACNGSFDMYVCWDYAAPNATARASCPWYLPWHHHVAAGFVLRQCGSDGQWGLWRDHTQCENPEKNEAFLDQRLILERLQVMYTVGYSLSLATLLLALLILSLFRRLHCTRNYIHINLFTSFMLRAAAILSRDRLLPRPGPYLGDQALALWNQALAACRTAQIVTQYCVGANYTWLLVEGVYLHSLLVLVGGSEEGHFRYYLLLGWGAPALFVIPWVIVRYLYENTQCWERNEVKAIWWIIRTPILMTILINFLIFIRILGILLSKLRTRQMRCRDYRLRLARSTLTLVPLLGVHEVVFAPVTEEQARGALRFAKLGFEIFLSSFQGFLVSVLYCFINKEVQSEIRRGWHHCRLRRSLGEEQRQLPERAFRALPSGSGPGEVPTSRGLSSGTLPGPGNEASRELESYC

hGLP-1R [2] = target: T2, hGLP-1R (Homo sapiens, UniProt P43220); experiment: Functional cAMP activity in the presence of 1% HSA
hGIPR [3] = target: T1, hGIPR; experiment: Functional cAMP activation in the presence of 0.1% casein (no HSA);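 for Relative cAMP EC50, hGIPR: intracellular cAMP rise after 30 min at 37 °C read by HTRF against a standard curve, scaled between buffer alone (0%) and top control ligand concentration (100%), four-parameter fit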;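 for Relative cAMP EC50, hGLP-1R: intracellular cAMP rise after 30 min at 37 °C read by HTRF, normalized between buffer only (0%) and maximal control ligand (100%), four-parameter variable-slope fit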;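 for Relative cAMP EC50, hGcgR: intracellular cAMP rise after 30 min at 37 °C, read by HTRF against a cAMP standard curve, scaled from buffer only (0%) to maximal control ligand response (100%)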
hGLP-1R [4] = target: T2, hGLP-1R; experiment: as above
hGcgR = hGcgR (Homo sapiens, UniProt P47871); experiment: as above;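 note: intracellular cAMP rise after 30 min at 37 °C, read by HTRF against a cAMP standard curve, scaled from buffer only (0%) to maximal control ligand response (100%)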
[5] = read-out: cAMP Rel EC50, hGLP-1R
[6] = in the presence of 0.1% casein (no HSA), geometric mean, read-out: Relative cAMP EC50, hGIPR
[7] = in the presence of 0.1% casein (no HSA), geometric mean, read-out: Relative cAMP EC50, hGLP-1R
[8] = in the presence of 0.1% casein (no HSA), geometric mean, read-out: Relative cAMP EC50, hGcgR
[9] = read-out: Relative cAMP EC50, hGIPR
[10] = read-out: Relative cAMP EC50, hGLP-1R
[11] = read-out: Relative cAMP EC50, hGcgR

T2 sequence (P43220 24-463): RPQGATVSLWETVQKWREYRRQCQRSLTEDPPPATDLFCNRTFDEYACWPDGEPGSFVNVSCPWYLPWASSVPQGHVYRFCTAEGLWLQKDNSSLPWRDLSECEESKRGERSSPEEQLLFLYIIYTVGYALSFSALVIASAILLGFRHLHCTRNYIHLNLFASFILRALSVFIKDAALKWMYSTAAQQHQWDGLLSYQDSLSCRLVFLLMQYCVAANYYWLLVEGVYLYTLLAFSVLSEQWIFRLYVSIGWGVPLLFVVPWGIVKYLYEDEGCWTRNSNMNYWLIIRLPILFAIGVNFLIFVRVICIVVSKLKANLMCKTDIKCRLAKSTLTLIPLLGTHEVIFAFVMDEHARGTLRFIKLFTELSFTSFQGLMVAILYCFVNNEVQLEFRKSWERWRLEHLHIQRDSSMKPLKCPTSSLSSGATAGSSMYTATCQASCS
Chain of human GcgR (P47871 26-477): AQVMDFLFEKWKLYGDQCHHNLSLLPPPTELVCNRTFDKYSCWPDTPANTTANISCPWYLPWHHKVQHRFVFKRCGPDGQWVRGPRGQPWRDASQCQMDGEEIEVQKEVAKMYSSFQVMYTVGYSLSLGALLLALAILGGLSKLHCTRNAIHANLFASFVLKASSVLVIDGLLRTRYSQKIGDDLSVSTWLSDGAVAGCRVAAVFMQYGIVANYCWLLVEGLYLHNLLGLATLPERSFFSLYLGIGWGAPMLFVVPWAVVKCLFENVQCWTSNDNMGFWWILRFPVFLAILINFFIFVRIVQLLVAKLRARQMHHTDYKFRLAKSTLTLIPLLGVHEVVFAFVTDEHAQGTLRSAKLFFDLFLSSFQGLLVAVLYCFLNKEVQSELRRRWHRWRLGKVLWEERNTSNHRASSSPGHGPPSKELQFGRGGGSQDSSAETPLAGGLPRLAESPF
Chain of hGcgR (P47871 26-477): as above

H-Y[Aib]QGTFTSD[4Pal]SQ[αMeL]LD[Orn]K([γGlu-γGlu-C18 diacid])AQ[αMe4Pal]QFIEYLLAGGPSSGAPPPSGSEE-NH2 [Example 1006]
EC50 (human GcgR; read-out: cAMP Rel EC50, hGcgR): 315 nM
EC50 (hGIPR [1]; read-out: cAMP Rel EC50, hGIPR): 11.8 nM
EC50 (hGLP-1R [2]; [5]): 574 nM
EC50 (hGIPR [3]; [6]): 0.109 nM
EC50 (hGLP-1R [4]; [7]): 5.12 nM
EC50 (hGcgR; [8]): 4.28 nM

Y[Aib]QGT[αMePhe(2-F)]TSD[4Pal][αMeS]I[αMeL]LE[Orn]K([AEEA-γGlu-C18 diacid])AQ[αMe4Pal]EFI[dE][αMeY]LVEGGPSSGAPPPSGS-NH2 [Example 768]
EC50 (human GcgR; read-out: cAMP Rel EC50, hGcgR): 2270 nM
EC50 (hGIPR [1]; read-out: cAMP Rel EC50, hGIPR): 2.65 nM
EC50 (hGLP-1R [2]; [5]): 33.2 nM
EC50 (hGIPR [3]; [9]): 0.0294 nM
EC50 (hGLP-1R [4]; [10]): 0.259 nM
EC50 (hGcgR; [11]): 10.3 nM

H-Y[Aib]QGTFTSDFS[Orn][αMeL]LDKK([AEEA-γGlu-C20 diacid])AQ[Aib]AFIEWLLEGGPSSGAPPPEGE-NH2 [Example 101]
EC50 (human GcgR; read-out: cAMP Rel EC50, hGcgR): 2810 nM
EC50 (hGIPR [1]; read-out: cAMP Rel EC50, hGIPR): 133 nM
EC50 (hGLP-1R [2]; [5]): 1090 nM
EC50 (hGIPR [3]; [6]): 0.436 nM
EC50 (hGLP-1R [4]; [7]): 4.3 nM
EC50 (hGcgR; [8]): 10 nM

H-Y[Aib]QGT[αMePhe(2-F)]TSD[4Pal]SILLDKK([γGlu-γGlu-C18 diacid])AQ[Aib]AFIEYLEEGGPSSGAPPPSGAGE-NH2 [Example 620]
EC50 (human GcgR; read-out: cAMP Rel EC50, hGcgR): 665 nM
EC50 (hGIPR [1]; read-out: cAMP Rel EC50, hGIPR): 5.96 nM
EC50 (hGLP-1R [2]; [5]): 90.7 nM
EC50 (hGIPR [3]; [9]): 0.0706 nM
EC50 (hGLP-1R [4]; [10]): 0.981 nM
EC50 (hGcgR; [11]): 8.26 nM

H-Y[Aib]QGTFTSD[4Pal]S[Orn][αMeL]LD[Orn]K([γGlu-γGlu-C18 diacid])AQ[αMe4Pal]QFIE[αMeY]LLEGGPSSGAPPPSGSEE-NH2 [Example 975]
EC50 (human GcgR): 374 nM
EC50 (hGIPR [1]): 30.1 nM
EC50 (hGLP-1R [2]): 1810 nM
EC50 (hGIPR [3]): 0.344 nM
EC50 (hGLP-1R [4]): 10.2 nM
EC50 (hGcgR): 2.61 nM

CC[C@H](C)[C@H](NC(=O)[C@H](CO)NC(=O)[C@H](Cc1ccc(O)cc1)NC(=O)[C@H](CC(=O)O)NC(=O)[C@H](CO)NC(=O)[C@@H](NC(=O)[C@](C)(Cc1ccccc1F)NC(=O)[C@@H](NC(=O)CNC(=O)[C@H](CCC(N)=O)NC(=O)C(C)(C)NC(=O)[C@@H](N)Cc1ccc(O)cc1)[C@@H](C)O)[C@@H](C)O)C(=O)N[C@@H](CC(C)C)C(=O)N[C@@H](CC(C)C)C(=O)N[C@@H](CC(=O)O)C(=O)N[C@@H](CCCCN)C(=O)N[C@@H](CCCCNC(=O)CC[C@H](NC(=O)CC[C@H](NC(=O)CCCCCCCCCCCCCCCCC(=O)O)C(=O)O)C(=O)O)C(=O)N[C@@H](C)C(=O)N[C@@H](CCC(N)=O)C(=O)NC(C)(C)C(=O)N[C@@H](CC(N)=O)C(=O)N[C@@H](Cc1ccccc1)C(=O)N[C@H](C(=O)N[C@@H](CCC(=O)O)C(=O)N[C@@H](Cc1ccc(O)cc1)C(=O)N[C@@H](CC(C)C)C(=O)N[C@@H](CCC(=O)O)C(=O)N[C@@H](CCC(=O)O)C(=O)NCC(=O)NCC(=O)N1CCC[C@H]1C(=O)N[C@@H](CO)C(=O)N[C@@H](CO)C(=O)NCC(=O)N[C@@H](C)C(=O)N1CCC[C@H]1C(=O)N1CCC[C@H]1C(=O)N1CCC[C@H]1C(=O)N[C@@H](CO)C(N)=O)[C@@H](C)CC [Example 416] (H-Y[Aib]QGT[αMePhe(2-F)]TSDYSILLDKK([γGlu-γGlu-C18 diacid])AQ[Aib]NFIEYLEEGGPSSGAPPPS-NH2)
EC50 (human GcgR; read-out: cAMP Rel EC50, hGcgR): 348 nM
EC50 (hGIPR [1]; read-out: cAMP Rel EC50, hGIPR): 27.6 nM
EC50 (hGLP-1R [2]; [5]): 40.8 nM
EC50 (hGIPR [3]; [9]): 0.0393 nM
EC50 (hGLP-1R [4]; [10]): 0.331 nM
EC50 (hGcgR; [11]): 2.08 nM

CC[C@H](C)[C@H](NC(=O)[C@H](Cc1ccccc1)NC(=O)[C@H](C)NC(=O)C(C)(C)NC(=O)[C@H](CCC(N)=O)NC(=O)[C@H](C)NC(=O)[C@H](CCCCNC(=O)CC[C@H](NC(=O)CC[C@H](NC(=O)CCCCCCCCCCCCCCCCC(=O)O)C(=O)O)C(=O)O)NC(=O)[C@H](CCCN)NC(=O)[C@H](CC(=O)O)NC(=O)[C@H](CC(C)C)NC(=O)[C@](C)(CC(C)C)NC(=O)[C@@H](NC(=O)[C@H](CO)NC(=O)[C@H](Cc1ccncc1)NC(=O)[C@H](CC(=O)O)NC(=O)[C@H](CO)NC(=O)[C@@H](NC(=O)[C@](C)(Cc1ccccc1F)NC(=O)[C@@H](NC(=O)CNC(=O)[C@H](CCC(N)=O)NC(=O)C(C)(C)NC(=O)[C@@H](N)Cc1ccc(O)cc1)[C@@H](C)O)[C@@H](C)O)[C@@H](C)CC)C(=O)N[C@@H](CCC(=O)O)C(=O)N[C@@H](Cc1ccc(O)cc1)C(=O)N[C@@H](CC(C)C)C(=O)N[C@@H](CCC(=O)O)C(=O)N[C@@H](CCC(=O)O)C(=O)NCC(=O)NCC(=O)N1CCC[C@H]1C(=O)N[C@@H](CO)C(=O)N[C@@H](CO)C(=O)NCC(=O)N[C@@H](C)C(=O)N1CCC[C@H]1C(=O)N1CCC[C@H]1C(=O)N1CCC[C@H]1C(=O)N[C@@H](CO)C(N)=O [Example 441] (H-Y[Aib]QGT[αMePhe(2-F)]TSD[4Pal]SI[αMeL]LD[Orn]K([γGlu-γGlu-C18 diacid])AQ[Aib]AFIEYLEEGGPSSGAPPPS-NH2)
EC50 (human GcgR; read-out: cAMP Rel EC50, hGcgR): 855 nM
EC50 (hGIPR [1]; read-out: cAMP Rel EC50, hGIPR): 1.96 nM
EC50 (hGLP-1R [2]; [5]): 24.7 nM
EC50 (hGIPR [3]; [9]): 0.0239 nM
EC50 (hGLP-1R [4]; [10]): 0.365 nM
EC50 (hGcgR; [11]): 8 nM

Y[Aib]QGT[αMeF]TSD[4Pal][αMeS]I[αMeL]LD[Orn]K([AEEA-γGlu-C18 diacid])AQ[αMe4Pal]EFI[dE][αMeY]LIEGGPSSGEPPPSGGGE-NH2 [Example 1169]
EC50 (human GcgR; read-out: cAMP Rel EC50, hGcgR): 304 nM
EC50 (hGIPR [1]; read-out: cAMP Rel EC50, hGIPR): 1.18 nM
EC50 (hGLP-1R [2]; [5]): 80 nM
EC50 (hGIPR [3]; [6]): 0.011 nM
EC50 (hGLP-1R [4]; [7]): 0.613 nM
EC50 (hGcgR; [8]): 2.43 nM
